Data as given in US20140107100A1, “Benzoxazepines as Inhibitors of PI3K/mTOR and Methods of Their Use and Manufacture” (EXELIXIS, INC., priority 2010, published 2014).

Target: mTOR/GbL/Raptor (mTORC1) (Homo sapiens, UniProt P42345)
Assay: mTOR/GbL/Raptor (mTORC1) ELISA assay, phosphorylation of 4E-BP1
Format: biochemical
Conditions: 0.2 nM mTORC1, 40 uM ATP, 50 nM NHis-tagged 4E-BP1, 120 minutes; read-out: IC50 in this assay (mTORC1 ELISA)
Method in brief: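 Phospho-4E-BP1 was quantified by luminescent ELISA (anti-phospho-4E-BP1 IgG, HRP-tagged secondary) after capture of the His-tagged substrate on Ni-chelate plates.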

| IC50 [µM] | SMILES |
| --- | --- |
| 0.1 to 0.5 | CSc1nc(Cl)c(C(C)(C)O)c(N2CCOc3c(C)cc(-c4cnc5sc(N)nc5c4)cc3C2)n1 [Compound 114, 2-{4-[7-(2-amino[1,3]thiazolo[5,4-b]pyridin-6-yl)-9-methyl-2,3-dihydro-1,4-benzoxazepin-4(5H)-yl]-6-chloro-2-(methylthio)pyrimidin-5-yl}propan-2-ol] |
| ≤ 0.1 | C=Cc1c(C)ncnc1N1CCOc2c(C)cc(-c3cnc4sc(N)nc4c3)cc2C1 [Compound 115, 6-[4-(5-ethenyl-6-methylpyrimidin-4-yl)-9-methyl-2,3,4,5-tetrahydro-1,4-benzoxazepin-7-yl][1,3]thiazolo[5,4-b]pyridin-2-amine] |
| ≤ 0.1 | Cc1cc(-c2cnc3sc(N)nc3c2)cc2c1OCCN(c1ncncc1C(C)C)C2 [Compound 116, 6-{9-methyl-4-[5-(1-methylethyl)pyrimidin-4-yl]-2,3,4,5-tetrahydro-1,4-benzoxazepin-7-yl}[1,3]thiazolo[5,4-b]pyridin-2-amine] |
| 0.1 to 0.5 | Cc1cc(-c2cnn(C)c2)cc2c1OCCN(c1nc(N)nc(C)c1C(C)C)C2 [Compound 117, 4-methyl-5-(1-methylethyl)-6-[9-methyl-7-(1-methyl-1H-pyrazol-4-yl)-2,3-dihydro-1,4-benzoxazepin-4(5H)-yl]pyrimidin-2-amine] |
| 0.1 to 0.5 | Cc1ncc(-c2cc(C)c3c(c2)CN(c2nc(N)nc(C)c2C(C)C)CCO3)s1 [Compound 118, 4-methyl-5-(1-methylethyl)-6-[9-methyl-7-(2-methyl-1,3-thiazol-5-yl)-2,3-dihydro-1,4-benzoxazepin-4(5H)-yl]pyrimidin-2-amine] |
| ≤ 0.1 | CC(=O)NCc1nc(C)c(C(C)C)c(N2CCOc3c(C)cc(-c4cnc5sc(N)nc5c4)cc3C2)n1 [Compound 119, N-({4-[7-(2-amino[1,3]thiazolo[5,4-b]pyridin-6-yl)-9-methyl-2,3-dihydro-1,4-benzoxazepin-4(5H)-yl]-6-methyl-5-(1-methylethyl)pyrimidin-2-yl}methyl)acetamide] |
| ≤ 0.1 | Cc1cc(-c2cnc3sc(N)nc3c2)cc2c1OCCN(c1nc(CF)nc(C)c1C(C)C)C2 [Compound 120, 6-{4-[2-(fluoromethyl)-6-methyl-5-(1-methylethyl)pyrimidin-4-yl]-9-methyl-2,3,4,5-tetrahydro-1,4-benzoxazepin-7-yl}[1,3]thiazolo[5,4-b]pyridin-2-amine] |
| ≤ 0.1 | Cc1cc(-c2cnc3sc(N)nc3c2)cc2c1OCCN(c1nc(CNC3CC3)nc(C)c1C(C)C)C2 [Compound 121, 6-(4-{2-[(cyclopropylamino)methyl]-6-methyl-5-(1-methylethyl)pyrimidin-4-yl}-9-methyl-2,3,4,5-tetrahydro-1,4-benzoxazepin-7-yl)[1,3]thiazolo[5,4-b]pyridin-2-amine] |
| ≤ 0.1 | C=C(C)c1c(C)ncnc1N1CCOc2c(C)cc(-c3cnc4sc(N)nc4c3)cc2C1 [Compound 124, 6-{9-methyl-4-[6-methyl-5-(1-methylethenyl)pyrimidin-4-yl]-2,3,4,5-tetrahydro-1,4-benzoxazepin-7-yl}[1,3]thiazolo[5,4-b]pyridin-2-amine] |
| ≤ 0.1 | CC(=O)c1c(C)ncnc1N1CCOc2c(C)cc(-c3cnc4sc(N)nc4c3)cc2C1 [Compound 125, 1-{4-[7-(2-amino[1,3]thiazolo[5,4-b]pyridin-6-yl)-9-methyl-2,3-dihydro-1,4-benzoxazepin-4(5H)-yl]-6-methylpyrimidin-5-yl}ethanone] |
| ≤ 0.1 | Cc1cc(-c2cnc3sc(N)nc3c2)cc2c1OCCN(c1nc(CNCCF)nc(C)c1C(C)C)C2 [Compound 126, 6-{4-[2-{[(2-fluoroethyl)amino]methyl}-6-methyl-5-(1-methylethyl)pyrimidin-4-yl]-9-methyl-2,3,4,5-tetrahydro-1,4-benzoxazepin-7-yl}[1,3]thiazolo[5,4-b]pyridin-2-amine] |
| ≤ 0.1 | COCCc1c(C)nc(CN2CCCC2)nc1N1CCOc2c(C)cc(-c3cnc4sc(N)nc4c3)cc2C1 [Compound 127, 6-(9-methyl-4-{6-methyl-5-[2-(methyloxy)ethyl]-2-(pyrrolidin-1-ylmethyl)pyrimidin-4-yl}-2,3,4,5-tetrahydro-1,4-benzoxazepin-7-yl)[1,3]thiazolo[5,4-b]pyridin-2-amine] |
| ≤ 0.1 | Cc1cc(-c2cnc3sc(N)nc3c2)cc2c1OCCN(c1nc(C(F)(F)F)nc(C)c1C(C)C)C2 [Compound 128, 6-{9-methyl-4-[6-methyl-5-(1-methylethyl)-2-(trifluoromethyl)pyrimidin-4-yl]-2,3,4,5-tetrahydro-1,4-benzoxazepin-7-yl}[1,3]thiazolo[5,4-b]pyridin-2-amine] |
| ≤ 0.1 | COCCc1c(C)ncnc1N1CCOc2c(C)cc(-c3cnc4sc(N)nc4c3)cc2C1 [Compound 129, 6-(9-methyl-4-{6-methyl-5-[2-(methyloxy)ethyl]pyrimidin-4-yl}-2,3,4,5-tetrahydrio-1,4-benzoxazepin-7-yl)[1,3]thiazolo[5,4-b]pyridin-2-amine] |
| ≤ 0.1 | C=C(C)c1c(C)nc(N)nc1N1CCOc2c(C)cc(-c3cnc4sc(N)nc4c3)cc2C1 [Compound 130, 6-{4-[2-amino-6-methyl-5-(1-methylethenyl)pyrimidin-4-yl]-9-methyl-2,3,4,5-tetrahydro-1,4-benzoxazepin-7-yl}[1,3]thiazolo[5,4-b]pyridin-2-amine] |
| 0.1 to 0.5 | Cc1cc(-c2cnc3sc(N)nc3c2)cc2c1OCCN(c1ncnc(Cl)c1C(C)(C)O)C2 [Compound 131, 2-{4-[7-(2-amino[1,3]thiazolo[5,4-b]pyridin-6-yl)-9-methyl-2,3-dihydro-1,4-benzoxazepin-4(5H)-yl]-6-chloropyrimidin-5-yl}propan-2-ol] |
| ≤ 0.1 | COCCc1c(C)nc(C)nc1N1CCOc2c(C)cc(-c3cnc4sc(N)nc4c3)cc2C1 [Compound 132, 6-(4-{2,6-dimethyl-5-[2-(methyloxy)ethyl]pyrimidin-4-yl}-9-methyl-2,3,4,5-tetrahydro-1,4-benzoxazepin-7-yl)[1,3]thiazolo[5,4-b]pyridin-2-amine] |
| ≤ 0.1 | Cc1cc(-c2cnc3sc(N)nc3c2)cc2c1OCCN(c1nc(C3CNC3)nc(C)c1C(C)C)C2 [Compound 133, 6-{4-[2-azetidin-3-yl-6-methyl-5-(1-methylethyl)pyrimidin-4-yl]-9-methyl-2,3,4,5-tetrahydro-1,4-benzoxazepin-7-yl}[1,3]thiazolo[5,4-b]pyridin-2-amine] |
| ≤ 0.1 | Cc1cc(-c2cnc3sc(N)nc3c2)cc2c1OCCN(c1nc(CN)nc(C)c1C(C)C)C2 [Compound 134, 6-{4-[2-(aminomethyl)-6-methyl-5-(1-methylethyl)pyrimidin-4-yl]-9-methyl-2,3,4,5-tetrahydro-1,4-benzoxazepin-7-yl}[1,3]thiazolo[5,4-b]pyridin-2-amine] |
| ≤ 0.1 | COCCc1cnc(C)nc1N1CCOc2c(C)cc(-c3cnc4sc(N)nc4c3)cc2C1 [Compound 135, 6-(9-methyl-4-{2-methyl-5-[2-(methyloxy)ethyl]pyrimidin-4-yl}-2,3,4,5-tetrahydro-1,4-benzoxazepin-7-yl)[1,3]thiazolo[5,4-b]pyridin-2-amine] |
| ≤ 0.1 | CNCc1nc(C)c(C(C)C)c(N2CCOc3c(C)cc(-c4cnc5sc(N)nc5c4)cc3C2)n1 [Compound 136, 6-(9-methyl-4-{6-methyl-2-[(methylamino)methyl]-5-(1-methylethyl)pyrimidin-4-yl}-2,3,4,5-tetrahydro-1,4-benzoxazepin-7-yl)[1,3]thiazolo[5,4-b]pyridin-2-amine] |
| ≤ 0.1 | Cc1cc(-c2nnc(N)s2)cc2c1OCCN(c1nc(N)nc(C)c1C(C)C)C2 [Compound 137, 4-[7-(5-amino-1,3,4-thiadiazol-2-yl)-9-methyl-2,3-dihydro-1,4-benzoxazepin-4(5H)-yl]-6-methyl-5-(1-methylethyl)pyrimidin-2-amine] |
| ≤ 0.1 | C#CCc1c(C)nc(C)nc1N1CCOc2c(C)cc(-c3cnc4sc(N)nc4c3)cc2C1 [Compound 138, 6-[4-(2,6-dimethyl-5-prop-2-yn-1-ylpyrimidin-4-yl)-9-methyl-2,3,4,5-tetrahydro-1,4-benzoxazepin-7-yl][1,3]thiazolo[5,4-b]pyridin-2-amine] |
| ≤ 0.1 | Cc1cc(-c2cnc3sc(N)nc3c2)cc2c1OCCN(c1nc(N3CC(O)C3)nc(C)c1C(C)C)C2 [Compound 139, 1-{4-[7-(2-amino[1,3]thiazolo[5,4-b]pyridin-6-yl)-9-methyl-2,3-dihydro-1,4-benzoxazepin-4(5H)-yl]-6-methyl-5-(1-methylethyl)pyrimidin-2-yl}azetidin-3-ol] |
| 0.1 to 0.5 | COc1cc(-c2cnc3sc(N)nc3c2)cc2c1OCCN(c1nc(N)nc(C)c1C(C)C)C2 [Compound 140, 6-{4-[2-amino-6-methyl-5-(1-methylethyl)pyrimidin-4-yl]-9-(methyloxy)-2,3,4,5-tetrahydro-1,4-benzoxazepin-7-yl}[1,3]thiazolo[5,4-b]pyridin-2-amine] |
| ≤ 0.1 | CC#CCc1c(C)nc(C)nc1N1CCOc2c(C)cc(-c3cnc4sc(N)nc4c3)cc2C1 [Compound 141, 6-[4-(5-but-2-yn-1-yl-2,6-dimethylpyrimidin-4-yl)-9-methyl-2,3,4,5-tetrahydro-1,4-benzoxazepin-7-yl][1,3]thiazolo[5,4-b]pyridin-2-amine] |
| ≤ 0.1 | COC(C)c1c(C)nc(C)nc1N1CCOc2c(C)cc(-c3cnc4sc(N)nc4c3)cc2C1 (stereo not shown) [Compound 142, 6-(4-{2,6-dimethyl-5-[1-(methyloxy)ethyl]pyrimidin-4-yl}-9-methyl-2,3,4,5-tetrahydro-1,4-benzoxazepin-7-yl)[1,3]thiazolo[5,4-b]pyridin-2-amine] |
| ≤ 0.1 | COCc1c(C)nc(C)nc1N1CCOc2c(C)cc(-c3cnc4sc(N)nc4c3)cc2C1 [Compound 143, 6-(4-{2,6-dimethyl-5-[(methyloxy)methyl]pyrimidin-4-yl}-9-methyl-2,3,4,5-tetrahydro-1,4-benzoxazepin-7-yl)[1,3]thiazolo[5,4-b]pyridin-2-amine] |
